What all share (assay type): functional
The subject of one assay is Candida tropicalis. The assay is described as follows: In vitro antifungal activity against Candida tropicalis ATCC 28775 was measured.
Another assay deals with Aspergillus niger. The assay can be described thus: In vitro antifungal activity against Aspergillus niger KCTC 1231 was measured.
The subject of a further assay is Pichia kudriavzevii. The assay is described as follows: In vitro antifungal activity against Candida krusei ATCC 749 was measured.
In the next assay the test system is Candida albicans. The assay can be described thus: In vitro antifungal activity against Candida albicans ATCC 10231 was measured.

The results in this text go back to ChEMBL document CHEMBL1146607, “Synthesis and antifungal activity of 2,5-disubstituted-6-arylamino-4,7-benzimidazolediones” (2003).

In brackets after ≈: the same amount, converted by molar mass. Some results are limits rather than exact numbers.

Regarding `COc1ccc(NC2=C(Cl)C(=O)c3nc(-c4ccccn4)[nH]c3C2=O)cc1`, the MIC worked out at 1.6 mg/L (≈ 4.2 µM) against Candida tropicalis, 25 mg/L (≈ 65.7 µM) against Aspergillus niger, 12.5 mg/L (≈ 32.8 µM) in the assay on Pichia kudriavzevii and 12.5 mg/L (≈ 32.8 µM) in the assay with Candida albicans.

Regarding `O=C1C(Cl)=C(Nc2ccc(F)cc2)C(=O)c2[nH]c(-c3ccncc3)nc21`, the MIC in the assay on Candida tropicalis is 6.3 mg/L (≈ 17.1 µM); against Aspergillus niger it was 100 mg/L (≈ 271 µM); against Pichia kudriavzevii it was over 100 mg/L; in the assay with Candida albicans it was over 100 mg/L.

As to `COc1ccc(NC2=C(Cl)C(=O)c3nc(-c4cccnc4)[nH]c3C2=O)cc1`, the MIC in the assay with Candida tropicalis was 50 mg/L (≈ 131 µM); in the assay with Aspergillus niger it was 100 mg/L (≈ 263 µM); against Pichia kudriavzevii, over 100 mg/L; with Candida albicans, over 100 mg/L.

With `O=C1C(Cl)=C(Nc2ccc(F)cc2)C(=O)c2[nH]c(-c3ccccn3)nc21`, the MIC in the assay with Candida tropicalis amounted to 3.2 mg/L (≈ 8.68 µM); against Aspergillus niger, 25 mg/L (≈ 67.8 µM); against Pichia kudriavzevii, 6.3 mg/L (≈ 17.1 µM); in the assay with Candida albicans, 12.5 mg/L (≈ 33.9 µM).

On to `O=C1C(Cl)=C(Cl)C(=O)c2[nH]c(-c3ccccn3)nc21`, for which the MIC against Candida tropicalis is 25 mg/L (≈ 85 µM); against Aspergillus niger, 100 mg/L (≈ 340 µM); against Pichia kudriavzevii it was over 100 mg/L; against Candida albicans it was over 100 mg/L.

Turning to `O=C1C=C(Nc2ccc(Br)cc2)C(=O)c2[nH]c(-c3ccccn3)nc21`, the MIC against Candida tropicalis was found to be 0.8 mg/L (≈ 2.02 µM); against Aspergillus niger it was 1.6 mg/L (≈ 4.05 µM); against Pichia kudriavzevii, 1.6 mg/L (≈ 4.05 µM); in the assay on Candida albicans, 50 mg/L (≈ 127 µM).

As to `O=C1C=C(Nc2ccc(Cl)cc2)C(=O)c2[nH]c(-c3ccccn3)nc21`, the MIC in the assay on Candida tropicalis was 0.8 mg/L (≈ 2.28 µM); in the assay with Aspergillus niger, 3.2 mg/L (≈ 9.12 µM); in the assay with Pichia kudriavzevii, 1.6 mg/L (≈ 4.56 µM); against Candida albicans, 50 mg/L (≈ 143 µM).

For the compound `O=C1C=CC(=O)c2[nH]c(-c3ccccn3)nc21`, the MIC was 100 mg/L (≈ 444 µM) in the assay on Candida tropicalis, 100 mg/L (≈ 444 µM) with Aspergillus niger, over 100 mg/L with Pichia kudriavzevii and over 100 mg/L in the assay on Candida albicans.

For `O=C1C=C(Nc2ccc(I)cc2)C(=O)c2[nH]c(-c3ccccn3)nc21`, the MIC in the assay on Candida tropicalis came out at 0.8 mg/L (≈ 1.81 µM); against Aspergillus niger it was 100 mg/L (≈ 226 µM); against Pichia kudriavzevii it was 1.6 mg/L (≈ 3.62 µM); in the assay with Candida albicans it was 50 mg/L (≈ 113 µM).

For `Cc1ccc(NC2=C(Cl)C(=O)c3nc(-c4ccccn4)[nH]c3C2=O)cc1`, the MIC came out at 1.6 mg/L (≈ 4.39 µM) in the assay on Candida tropicalis, 25 mg/L (≈ 68.5 µM) against Aspergillus niger, 3.2 mg/L (≈ 8.77 µM) in the assay with Pichia kudriavzevii and 12.5 mg/L (≈ 34.3 µM) in the assay with Candida albicans.

Take `COc1ccc(NC2=C(Cl)C(=O)c3nc(-c4ccncc4)[nH]c3C2=O)cc1`: the MIC in the assay with Candida tropicalis is 25 mg/L (≈ 65.7 µM); against Aspergillus niger, 100 mg/L (≈ 263 µM); with Pichia kudriavzevii it was over 100 mg/L; against Candida albicans, over 100 mg/L.

In the case of `O=C1C(Cl)=C(Nc2ccc(F)cc2)C(=O)c2[nH]c(-c3cccnc3)nc21`, the MIC in the assay with Candida tropicalis is 12.5 mg/L (≈ 33.9 µM); with Aspergillus niger it was 100 mg/L (≈ 271 µM); against Pichia kudriavzevii, over 100 mg/L; with Candida albicans, over 100 mg/L.

With `CCOc1ccc(NC2=C(Cl)C(=O)c3[nH]c(-c4ccccn4)nc3C2=O)cc1`, the MIC in the assay with Candida tropicalis stood at 3.2 mg/L (≈ 8.11 µM); in the assay on Aspergillus niger, 25 mg/L (≈ 63.3 µM); against Pichia kudriavzevii it was 12.5 mg/L (≈ 31.7 µM); against Candida albicans it was 12.5 mg/L (≈ 31.7 µM).

As for `O=C1C(Cl)=C(Nc2ccc(Br)cc2)C(=O)c2[nH]c(-c3ccncc3)nc21`, the MIC in the assay with Candida tropicalis is 12.5 mg/L (≈ 29.1 µM); in the assay on Aspergillus niger it was 100 mg/L (≈ 233 µM); against Pichia kudriavzevii, over 100 mg/L; with Candida albicans, over 100 mg/L.

`O=C1C(Cl)=C(Nc2ccc(Br)cc2)C(=O)c2[nH]c(-c3cccnc3)nc21`: the MIC with Candida tropicalis was 50 mg/L (≈ 116 µM); in the assay with Aspergillus niger, 100 mg/L (≈ 233 µM); with Pichia kudriavzevii, over 100 mg/L; in the assay on Candida albicans, over 100 mg/L.

For the compound `O=C1C(Cl)=C(Nc2ccc(Cl)cc2)C(=O)c2[nH]c(-c3cccnc3)nc21`, the MIC is 25 mg/L (≈ 64.9 µM) against Candida tropicalis, 100 mg/L (≈ 260 µM) in the assay on Aspergillus niger, over 100 mg/L against Pichia kudriavzevii and over 100 mg/L with Candida albicans.

With `O=C1C(Cl)=C(Nc2ccc(Br)cc2)C(=O)c2[nH]c(-c3ccccn3)nc21`, the MIC worked out at 1.6 mg/L (≈ 3.72 µM) against Candida tropicalis, 6.3 mg/L (≈ 14.7 µM) in the assay on Aspergillus niger, 6.3 mg/L (≈ 14.7 µM) in the assay on Pichia kudriavzevii and 3.2 mg/L (≈ 7.45 µM) in the assay with Candida albicans.

As for `Cc1ccc(NC2=CC(=O)c3[nH]c(-c4ccccn4)nc3C2=O)cc1`, the MIC with Candida tropicalis is 0.8 mg/L (≈ 2.42 µM); with Aspergillus niger, 6.3 mg/L (≈ 19.1 µM); against Pichia kudriavzevii it was 0.4 mg/L (≈ 1.21 µM); in the assay on Candida albicans, 3.2 mg/L (≈ 9.69 µM).

`O=C1C(Cl)=C(Nc2ccc(Cl)cc2)C(=O)c2[nH]c(-c3ccccn3)nc21`: the MIC against Candida tropicalis stood at 3.2 mg/L (≈ 8.31 µM); in the assay on Aspergillus niger, 6.3 mg/L (≈ 16.4 µM); with Pichia kudriavzevii, 6.3 mg/L (≈ 16.4 µM); in the assay with Candida albicans, 6.3 mg/L (≈ 16.4 µM).

Regarding `COc1ccc(NC2=CC(=O)c3[nH]c(-c4ccccn4)nc3C2=O)cc1`, the MIC turned out to be 0.8 mg/L (≈ 2.31 µM) against Candida tropicalis, 50 mg/L (≈ 144 µM) against Aspergillus niger, 1.6 mg/L (≈ 4.62 µM) against Pichia kudriavzevii and 6.3 mg/L (≈ 18.2 µM) with Candida albicans.

Take `O=C1C(Nc2ccc(F)cc2)=CC(=O)c2[nH]c(-c3ccccn3)nc21`: the MIC in the assay on Candida tropicalis turned out to be 1.6 mg/L (≈ 4.79 µM); against Aspergillus niger it was 100 mg/L (≈ 299 µM); with Pichia kudriavzevii, 50 mg/L (≈ 150 µM); in the assay on Candida albicans, 100 mg/L (≈ 299 µM).

For the compound `CCOc1ccc(NC2=CC(=O)c3nc(-c4ccccn4)[nH]c3C2=O)cc1`, the MIC in the assay on Candida tropicalis was determined as 0.8 mg/L (≈ 2.22 µM); against Aspergillus niger it was 50 mg/L (≈ 139 µM); against Pichia kudriavzevii, 1.6 mg/L (≈ 4.44 µM); in the assay with Candida albicans, 50 mg/L (≈ 139 µM).

For `O=C1C(Cl)=C(Nc2ccc(I)cc2)C(=O)c2[nH]c(-c3ccccn3)nc21`, the MIC was 3.2 mg/L (≈ 6.71 µM) with Candida tropicalis, over 100 mg/L in the assay with Aspergillus niger, 100 mg/L (≈ 210 µM) in the assay on Pichia kudriavzevii and 50 mg/L (≈ 105 µM) against Candida albicans.

For the compound `O=C1C(Cl)=C(Nc2ccc(Cl)cc2)C(=O)c2[nH]c(-c3ccncc3)nc21`, the MIC was 3.2 mg/L (≈ 8.31 µM) in the assay with Candida tropicalis, 100 mg/L (≈ 260 µM) in the assay with Aspergillus niger, over 100 mg/L with Pichia kudriavzevii and over 100 mg/L in the assay on Candida albicans.

On to `Nc1nc(=O)[nH]cc1F` [FLUCYTOSINE], for which the MIC in the assay on Candida tropicalis is 6.3 mg/L (≈ 48.8 µM); with Aspergillus niger, 6.3 mg/L (≈ 48.8 µM); against Pichia kudriavzevii it was 6.3 mg/L (≈ 48.8 µM); with Candida albicans it was 3.2 mg/L (≈ 24.8 µM).

What is called MIC is the least concentration at which growth counts as inhibited. Higher therefore signals a less susceptible organism.
